Measured values reported in patent US9540392B2, “Thienopyrimidines” (BAYER PHARMA AKTIENGESELLSCHAFT, priority 2012, dated 2017).

What follows are compounds tested against T1, human full-length MKNK1 (Homo sapiens, UniProt Q9BUB5, T385D) (assay: MKNK1 kinase high ATP assay (TR-FRET)). Settings: 2 mM ATP, after preincubation with MKNK1; read-out: MKNK1 IC50 (MKNK1 high ATP).
T1 construct: GST (N); purchased Carna Biosciences 02-145; host or cells: insect cells (baculovirus expression system)
Assay type: biochemical
Procedure: MKNK1-inhibitory activity at high ATP of compounds of the present invention after their preincubation with MKNK1 was quantified employing the TR-FRET-based MKNK1 high ATP assay as described in the following paragraphs.
As substrate for the kinase reaction the biotinylated peptide biotin-Ahx-[…] (C-terminus in amide form) was used, which can be purchased e.g. from the company Biosyntan (Berlin-Buch, Germany).
For the assay 50 nL of a 100 fold concentrated solution of the test compound in DMSO was pipetted into a black low volume 384 well microtiter plate (Greiner Bio-One, Frickenhausen, Germany), 2 μL of a solution of MKNK1 in aqueous assay buffer [50 mM HEPES pH 7.5, 5 mM MgCl2, 1.0 mM dithiothreitol, 0.005% (v/v) Nonidet-P40 (Sigma)] was added and the mixture was incubated for 15 min at 22° C. to allow pre-binding of the test compounds to the enzyme before the start of the kinase reaction. Then the kinase reaction was started by the addition of 3 μL of a solution of adenosine-tri-phosphate (ATP, 3.3 mM=>final conc. in the 5 μL assay volume is 2 mM) and substrate (0.1 μM=>final conc. in the 5 μL assay volume is 0.06 μM) in assay buffer and the resulting mixture was incubated for a reaction time of 30 min at 22° C. The concentration of MKNK1 was adjusted depending of the activity of the enzyme lot and was chosen appropriate to have the assay in the linear range, typical concentrations were in the range of 0.003 μg/mL. The reaction was stopped by the addition of 5 μL of a solution of TR-FRET detection reagents (5 nM streptavidine-XL665 [Cisbio Bioassays, Codolet, France] and 1 nM anti-ribosomal protein S6 (pSer236)-antibody from Invitrogen [#44921G] and 1 nM LANCE EU-W1024 Labeled ProteinG [Perkin-Elmer, product no. AD0071]) in an aqueous EDTA-solution (100 mM EDTA, 0.1% (w/v) bovine serum albumin in 50 mM HEPES pH 7.5).
The resulting mixture was incubated for 1 h at 22° C. to allow the formation of complex between the phosphorylated biotinylated peptide and the detection reagents. Subsequently the amount of phosphorylated substrate was evaluated by measurement of the resonance energy transfer from the Eu-chelate to the streptavidine-XL. Therefore, the fluorescence emissions at 620 nm and 665 nm after excitation at 350 nm were measured in a TR-FRET reader, e.g. a Rubystar (BMG Labtechnologies, Offenburg, Germany) or a Viewlux (Perkin-Elmer). The ratio of the emissions at 665 nm and at 622 nm was taken as the measure for the amount of phosphorylated substrate.

T1 sequence (Q9BUB5 1-424 isoform Q9BUB5-2 T344D): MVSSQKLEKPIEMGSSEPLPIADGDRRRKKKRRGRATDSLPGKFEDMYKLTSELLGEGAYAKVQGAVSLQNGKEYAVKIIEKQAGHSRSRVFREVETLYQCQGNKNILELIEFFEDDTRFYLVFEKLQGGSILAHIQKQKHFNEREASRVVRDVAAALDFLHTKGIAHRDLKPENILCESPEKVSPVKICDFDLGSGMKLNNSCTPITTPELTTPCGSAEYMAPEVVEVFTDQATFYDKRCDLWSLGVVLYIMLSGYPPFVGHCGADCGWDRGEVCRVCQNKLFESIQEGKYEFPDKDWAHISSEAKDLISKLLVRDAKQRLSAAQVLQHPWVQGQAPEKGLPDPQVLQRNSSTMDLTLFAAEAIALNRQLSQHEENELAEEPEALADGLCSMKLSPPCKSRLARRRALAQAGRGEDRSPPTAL

For CC1CCN(CCN(C)C(=O)C2CCc3c(sc4ncnc(Nc5ccc6[nH]ncc6c5)c34)C2)CC1 (racemic) [Example 169, (RS)-4-(1H-indazol-5-ylamino)-N-methyl-N-[2-(4-methylpiperidin-1-yl)ethyl]-5,6,7,8-tetrahydro[1]benzothieno[2,3-d]pyrimidine-7-carboxamide], which IC50 is on record?
Its IC50 is 11.1 nM.

With CCOc1cc2[nH]ncc2cc1Nc1ncnc2sc3c(c12)CCC(C(=O)N(C)CCOC)C3 (racemic) [Example 245, (RS)-4-[(6-Ethoxy-1H-indazol-5-yl)amino]-N-(2-methoxyethyl)-N-methyl-5,6,7,8-tetrahydro[1]benzothieno[2,3-d]pyrimidine-7-carboxamide] as the compound, how does the IC50 read?
The IC50 was 0.7 nM.

Which IC50 does the source give for COc1cc2[nH]ncc2cc1Nc1ncnc2sc3c(c12)CCC(C(=O)N1CC2(CCO2)C1)C3 (racemic) [Example 260, (RS)-{4-[(6-Methoxy-1H-indazol-5-yl)amino]-5,6,7,8-tetrahydro[1]benzothieno[2,3-d]pyrimidin-7-yl}(1-oxa-6-azaspiro[3.3]hept-6-yl)methanone] here?
The IC50 was 0.7 nM.

For CN(C)CCN(Cc1ccccc1)C(=O)C1CCc2c(sc3ncnc(Nc4ccc5[nH]ncc5c4)c23)C1 (racemic) [Example 84, (RS)-N-benzyl-N-[2-(dimethylamino)ethyl]-4-(1H-indazol-5-ylamino)-5,6,7,8-tetrahydro[1]benzothieno[2,3-d]pyrimidine-7-carboxamide], which IC50 is on record?
The IC50 was 5.5 nM.

How did the IC50 turn out when CCOc1cc2[nH]ncc2cc1Nc1ncnc2sc3c(c12)CCC(C(=O)N(CC)CCC#N)C3 (racemic) [Example 242, (RS)—N-(2-Cyanoethyl)-4-[(6-ethoxy-1H-indazol-5-yl)amino]-N-ethyl-5,6,7,8-tetrahydro[1]benzothieno[2,3-d]pyrimidine-7-carboxamide] was run?
Its IC50 is 0.3 nM.

With N#Cc1ccc(N2CCN(C(=O)C3CCc4c(sc5ncnc(Nc6ccc7[nH]ncc7c6)c45)C3)CC2)cc1 (racemic) [Example 141, (RS)-4-(4-{[4-(1H-indazol-5-ylamino)-5,6,7,8-tetrahydro[1]benzothieno[2,3-d]pyrimidin-7-yl]carbonyl}piperazin-1-yl)benzonitrile] as the compound, how does the IC50 read?
The IC50 was 17.4 nM.

COc1ccc(CCNC(=O)C2CCc3c(sc4ncnc(Nc5ccc6[nH]ncc6c5)c34)C2)cc1 (stereo not drawn) [Example 25, 4-(1H-Indazol-5-ylamino)-N-[2-(4-methoxyphenyl)ethyl]-5,6,7,8-tetrahydro[1] benzothieno [2,3-d]pyrimidine-7-carboxamide] was tested. Which IC50 did it give?
The IC50 was 3 nM.

With CCOc1cc2[nH]ncc2cc1Nc1ncnc2sc3c(c12)CCC(C(=O)N(C)CC1CC1)C3 (racemic) [Example 240, (RS)—N-(Cyclopropylmethyl)-4-[(6-ethoxy-1H-indazol-5-yl)amino]-N-methyl-5,6,7,8-tetrahydro[1]benzothieno[2,3-d]pyrimidine-7-carboxamide] as the compound, how does the IC50 read?
Its IC50 is 1.1 nM.

Which IC50 does the source give for COc1cc2[nH]ncc2cc1Nc1ncnc2sc3c(c12)CCC(C(=O)N1CC2(CCS2(=O)=O)C1)C3 (racemic) [Example 264, (RS)-(1,1-Dioxido-1-thia-6-azaspiro[3.3]hept-6-yl){4-[(6-methoxy-1H-indazol-5-yl)amino]-5,6,7,8-tetrahydro[1]benzothieno[2,3-d]pyrimidin-7-yl}methanone] here?
The IC50 was 2.2 nM.

Which IC50 does the source give for O=C(C1CCc2c(sc3ncnc(Nc4ccc5[nH]ncc5c4)c23)C1)N1CCCC(CO)C1 (racemic) [Example 88, (RS)-[3-(hydroxymethyl)piperidin-1-yl][4-(1H-indazol-5-ylamino)-5,6,7,8-tetrahydro[1]benzothieno[2,3-d]pyrimidin-7-yl]methanone] here?
The IC50 was 9.9 nM.

For CCNC(=O)C1CCc2c(sc3ncnc(Nc4ccc5[nH]ncc5c4)c23)C1 (stereo not drawn) [Example 46, N-Ethyl-4-(1H-indazol-5-ylamino)-5,6,7,8-tetrahydro[1] benzothieno [2,3-d]pyrimidine-7-carboxamide], which IC50 is on record?
The IC50 was 10 nM.

With CN(CCO)C(=O)C1CCc2c(sc3ncnc(Nc4ccc5[nH]ncc5c4)c23)C1 (stereo not drawn) [Example 41, N-(2-Hydroxyethyl)-4-(1H-indazol-5-ylamino)-N-methyl-5,6,7,8-tetrahydro[1] benzothieno [2,3-d]pyrimidine-7-carboxamide] as the compound, how does the IC50 read?
Its IC50 is 8 nM.

How did the IC50 turn out when CN(C)C(=O)C1CCc2c(sc3ncnc(Nc4cc5cn[nH]c5cc4OCCCN=[N+]=[N-])c23)C1 (racemic) [Example 276, (RS)-4-{[6-(3-Azidopropoxy)-1H-indazol-5-yl]amino}-N,N-dimethyl-5,6,7,8-tetrahydro[1]benzothieno[2,3-d]pyrimidine-7-carboxamide] was run?
The IC50 was 3.9 nM.

Which IC50 does the source give for CC(C)Oc1cc2[nH]ncc2cc1Nc1ncnc2sc3c(c12)CCC(C(=O)N(C)CC(F)F)C3 (racemic) [Example 216, (RS)—N-(2,2-Difluoroethyl)-N-methyl-4-{[6-(propan-2-yloxy)-1H-indazol-5-yl]amino}-5,6,7,8-tetrahydro[1]benzothieno[2,3-d]pyrimidine-7-carboxamide] here?
The IC50 was 0.5 nM.

How did the IC50 turn out when O=C(Nc1cncnc1)C1CCc2c(sc3ncnc(Nc4ccc5[nH]ncc5c4)c23)C1 (racemic) [Example 150, (RS)-4-(1H-indazol-5-ylamino)-N-(pyrimidin-5-yl)-5,6,7,8-tetrahydro[1]benzothieno[2,3-d]pyrimidine-7-carboxamide] was run?
Its IC50 is 31.2 nM.

With O=C(NC1(c2ccccc2)CC1)C1CCc2c(sc3ncnc(Nc4ccc5[nH]ncc5c4)c23)C1 (racemic) [Example 147, (RS)-4-(1H-indazol-5-ylamino)-N-(1-phenylcyclopropyl)-5,6,7,8-tetrahydro[1]benzothieno[2,3-d]pyrimidine-7-carboxamide] as the compound, how does the IC50 read?
The IC50 was 3.7 nM.

How did the IC50 turn out when CCOc1cc2[nH]ncc2cc1Nc1ncnc2sc3c(c12)CCC(C(=O)N1CC[C@H](O)C1)C3 (mixture of isomers) [Example 246, {(7RS)-4-[(6-Ethoxy-1H-indazol-5-yl)amino]-5,6,7,8-tetrahydro[1]benzothieno[2,3-d]pyrimidin-7-yl}[(3S)-3-hydroxypyrrolidin-1-yl]methanone] was run?
Its IC50 is 0.9 nM.

Which IC50 does the source give for CCOc1cc2[nH]ncc2cc1Nc1ncnc2sc3c(c12)CCC(C(=O)N(CC)C(C)C)C3 (racemic) [Example 236, (RS)-4-[(6-Ethoxy-1H-indazol-5-yl)amino]-N-ethyl-N-(propan-2-yl)-5,6,7,8-tetrahydro[1]benzothieno[2,3-d]pyrimidine-7-carboxamide] here?
The IC50 was 2.8 nM.

For CN(Cc1ccncc1)C(=O)C1CCc2c(sc3ncnc(Nc4ccc5[nH]ncc5c4)c23)C1 (stereo not drawn) [Example 26, 4-(1H-Indazol-5-ylamino)-N-methyl-N-(pyridin-4-ylmethyl)-5,6,7,8-tetrahydro[1] benzothieno [2,3-d]pyrimidine-7-carboxamide], which IC50 is on record?
Its IC50 is 3 nM.

O=C(NCc1ccc(C(F)(F)F)cc1)C1CCc2c(sc3ncnc(Nc4ccc5[nH]ncc5c4)c23)C1 (stereo not drawn) [Example 28, 4-(1H-Indazol-5-ylamino)-N-[4-(trifluoromethyl)benzyl]-5,6,7,8-tetrahydro[1] benzothieno [2,3-d]pyrimidine-7-carboxamide] was tested. Which IC50 did it give?
The IC50 was 4 nM.

For N#Cc1ccc(NC(=O)C2CCc3c(sc4ncnc(Nc5ccc6[nH]ncc6c5)c34)C2)cc1 (racemic) [Example 77, (RS)—N-(4-Cyanophenyl)-4-(1H-indazol-5-ylamino)-5,6,7,8-tetrahydro[1]benzothieno[2,3-d]pyrimidine-7-carboxamide], which IC50 is on record?
The IC50 was 19.7 nM.

N#CC1CCCN(C(=O)C2CCc3c(sc4ncnc(Nc5ccc6[nH]ncc6c5)c34)C2)C1 (racemic) [Example 196, (RS)-1-{[4-(1H-indazol-5-yalmino)-5,6,7,8-tetrahydro[1]benzothieno[2,3-d]pyrimidin-7-yl]carbonyl}piperidine-3-carbonitrile] was tested. Which IC50 did it give?
Its IC50 is 7.5 nM.

COc1cc2[nH]ncc2cc1Nc1ncnc2sc3c(c12)CCC(C(=O)N1CC(O)C1)C3 (racemic) [Example 272, (RS)-(3-Hydroxyazetidin-1-yl){4-[(6-methoxy-1H-indazol-5-yl)amino]-5,6,7,8-tetrahydro[1]benzothieno[2,3-d]pyrimidin-7-yl}methanone] was tested. Which IC50 did it give?
Its IC50 is 0.6 nM.

How did the IC50 turn out when O=C(NCCN1CCOCC1)C1CCc2c(sc3ncnc(Nc4ccc5[nH]ncc5c4)c23)C1 (stereo not drawn) [Example 42, 4-(1H-Indazol-5-ylamino)-N-[2-(morpholin-4-yl)ethyl]-5,6,7,8-tetrahydro[1] benzothieno [2,3-d]pyrimidine-7-carboxamide] was run?
The IC50 was 9 nM.
